Results taken from patent US9249129B2, “Morpholino substituted urea derivatives as mTOR inhibitors” (CELLZOME LIMITED, priority 2010, dated 2016).

What was measured:
Experiment in all cases: kinobeads assay with mass spectrometry detection of kinases (kinase selectivity profile)
Format in all cases: binding
kinases (kinome) [1] = target: T1, kinases (kinome) (Homo sapiens, UniProt P29323); settings: EphB2 (TK), IPI00021275
T1 construct: determined in kinobeads assays with mass spectrometry detection of kinases as described previously; endogenous in cells; host or cells: cell lysate
T1 sequence (P29323 19-1055): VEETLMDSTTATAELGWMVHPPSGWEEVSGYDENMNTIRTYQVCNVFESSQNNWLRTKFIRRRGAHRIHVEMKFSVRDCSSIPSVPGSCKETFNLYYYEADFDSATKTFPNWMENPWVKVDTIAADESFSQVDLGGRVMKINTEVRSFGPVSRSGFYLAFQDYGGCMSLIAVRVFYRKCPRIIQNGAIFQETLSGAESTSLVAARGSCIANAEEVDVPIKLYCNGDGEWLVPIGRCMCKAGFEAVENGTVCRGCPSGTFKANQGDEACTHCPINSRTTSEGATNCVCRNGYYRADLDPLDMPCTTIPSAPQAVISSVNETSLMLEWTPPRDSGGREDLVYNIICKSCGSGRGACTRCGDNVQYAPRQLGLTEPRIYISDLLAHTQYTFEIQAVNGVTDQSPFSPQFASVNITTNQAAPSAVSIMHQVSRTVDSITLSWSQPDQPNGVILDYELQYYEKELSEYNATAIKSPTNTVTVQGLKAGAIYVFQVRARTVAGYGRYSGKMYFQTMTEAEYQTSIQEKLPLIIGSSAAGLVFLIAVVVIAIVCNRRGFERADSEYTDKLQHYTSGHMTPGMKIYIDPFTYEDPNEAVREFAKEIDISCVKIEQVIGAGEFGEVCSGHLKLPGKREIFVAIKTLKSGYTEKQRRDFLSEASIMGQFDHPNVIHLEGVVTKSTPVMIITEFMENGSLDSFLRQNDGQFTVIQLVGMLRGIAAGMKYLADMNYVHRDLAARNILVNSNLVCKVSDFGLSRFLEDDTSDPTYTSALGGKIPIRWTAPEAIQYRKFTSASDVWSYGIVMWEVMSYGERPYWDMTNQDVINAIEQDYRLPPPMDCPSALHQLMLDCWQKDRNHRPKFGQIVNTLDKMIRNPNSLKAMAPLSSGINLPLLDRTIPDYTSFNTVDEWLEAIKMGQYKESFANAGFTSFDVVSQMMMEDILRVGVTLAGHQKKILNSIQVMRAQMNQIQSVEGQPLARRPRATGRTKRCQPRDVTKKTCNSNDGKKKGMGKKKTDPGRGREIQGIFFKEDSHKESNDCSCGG
Description: (§1) The protein kinase complement of the human genome (the kinome) was described previously (Manning et al., 2002. Science 298(5600):1912-1934). Sequence accession numbers are defined by the International Protein Index (IPI) (Kersey et al., 2004. Proteomics 4(7):1985-1988).

kinases (kinome) [2] = target: T2, kinases (kinome) (Homo sapiens, UniProt P42338); settings: PIK3Cb (Lipid Kinase), IPI00031388
T2 construct: determined in kinobeads assays with mass spectrometry detection of kinases as described previously; endogenous in cells; host or cells: cell lysate
T2 sequence (P42338 whole entry): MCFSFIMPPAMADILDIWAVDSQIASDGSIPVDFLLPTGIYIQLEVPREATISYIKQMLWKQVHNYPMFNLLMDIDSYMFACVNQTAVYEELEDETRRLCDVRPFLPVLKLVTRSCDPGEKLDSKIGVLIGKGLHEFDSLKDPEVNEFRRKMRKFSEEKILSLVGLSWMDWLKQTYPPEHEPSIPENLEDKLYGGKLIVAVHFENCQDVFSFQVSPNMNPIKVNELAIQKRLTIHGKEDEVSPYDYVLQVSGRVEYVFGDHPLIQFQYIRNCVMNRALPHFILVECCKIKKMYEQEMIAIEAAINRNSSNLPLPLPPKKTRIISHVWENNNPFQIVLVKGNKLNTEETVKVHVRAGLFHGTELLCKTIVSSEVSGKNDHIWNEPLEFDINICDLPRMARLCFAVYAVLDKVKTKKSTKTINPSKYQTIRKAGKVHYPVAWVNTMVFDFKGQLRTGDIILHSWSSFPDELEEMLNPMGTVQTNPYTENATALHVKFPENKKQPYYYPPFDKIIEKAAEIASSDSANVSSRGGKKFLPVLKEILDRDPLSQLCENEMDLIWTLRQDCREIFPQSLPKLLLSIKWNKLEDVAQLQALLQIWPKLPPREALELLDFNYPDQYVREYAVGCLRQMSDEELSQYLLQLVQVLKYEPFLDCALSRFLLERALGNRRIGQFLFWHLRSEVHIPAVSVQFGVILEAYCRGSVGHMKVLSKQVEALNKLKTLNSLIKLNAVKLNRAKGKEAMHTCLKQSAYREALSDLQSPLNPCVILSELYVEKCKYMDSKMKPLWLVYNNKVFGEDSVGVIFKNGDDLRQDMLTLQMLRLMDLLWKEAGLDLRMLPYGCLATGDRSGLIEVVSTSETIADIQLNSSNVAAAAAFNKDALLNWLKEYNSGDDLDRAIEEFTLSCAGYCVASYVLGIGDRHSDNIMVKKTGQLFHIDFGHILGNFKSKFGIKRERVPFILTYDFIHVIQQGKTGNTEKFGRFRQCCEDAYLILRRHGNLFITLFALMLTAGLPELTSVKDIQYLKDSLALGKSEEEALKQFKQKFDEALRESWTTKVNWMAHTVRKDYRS
Description: as §1

kinases (kinome) [3] = target: T3, kinases (kinome) (Homo sapiens, UniProt P42680); settings: TEC (TK), IPI00000878
T3 construct: determined in kinobeads assays with mass spectrometry detection of kinases as described previously; endogenous in cells; host or cells: cell lysate
T3 sequence (P42680 1-631): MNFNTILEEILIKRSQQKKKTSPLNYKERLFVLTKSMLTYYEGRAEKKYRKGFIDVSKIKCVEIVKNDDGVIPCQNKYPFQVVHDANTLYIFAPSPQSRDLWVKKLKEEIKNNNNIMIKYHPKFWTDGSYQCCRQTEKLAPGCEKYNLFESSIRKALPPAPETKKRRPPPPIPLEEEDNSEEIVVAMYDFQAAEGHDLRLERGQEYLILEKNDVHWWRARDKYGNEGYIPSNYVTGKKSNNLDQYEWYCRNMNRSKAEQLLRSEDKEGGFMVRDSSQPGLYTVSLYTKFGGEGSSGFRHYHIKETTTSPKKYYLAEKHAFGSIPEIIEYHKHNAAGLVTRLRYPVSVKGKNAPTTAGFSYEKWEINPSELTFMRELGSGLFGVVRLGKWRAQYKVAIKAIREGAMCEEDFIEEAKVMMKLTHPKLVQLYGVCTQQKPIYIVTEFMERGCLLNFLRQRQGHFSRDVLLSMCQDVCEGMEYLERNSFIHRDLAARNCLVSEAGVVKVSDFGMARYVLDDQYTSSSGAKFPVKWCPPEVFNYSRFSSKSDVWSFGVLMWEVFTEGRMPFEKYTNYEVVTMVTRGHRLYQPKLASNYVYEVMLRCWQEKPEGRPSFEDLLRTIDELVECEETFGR
Description: as §1

kinases (kinome) [4] = target: T4, kinases (kinome) (Homo sapiens, UniProt P48729); settings: CK1a (CK1), IPI00448798
T4 construct: determined in kinobeads assays with mass spectrometry detection of kinases as described previously; endogenous in cells; host or cells: cell lysate
T4 sequence (P48729 whole entry): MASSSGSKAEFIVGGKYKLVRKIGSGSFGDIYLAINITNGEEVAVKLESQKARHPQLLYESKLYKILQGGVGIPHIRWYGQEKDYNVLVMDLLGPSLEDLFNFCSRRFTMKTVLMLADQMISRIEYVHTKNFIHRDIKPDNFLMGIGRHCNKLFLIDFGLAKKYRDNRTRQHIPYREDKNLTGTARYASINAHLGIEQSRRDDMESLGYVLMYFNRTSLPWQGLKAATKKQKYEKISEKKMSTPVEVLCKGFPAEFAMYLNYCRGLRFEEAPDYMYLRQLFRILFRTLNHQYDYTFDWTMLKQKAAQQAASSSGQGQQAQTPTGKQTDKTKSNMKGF
Description: as §1

kinases (kinome) [5] = target: T5, kinases (kinome) (Homo sapiens, UniProt P49841); settings: GSK3B (CMGC), IPI00216190
T5 construct: determined in kinobeads assays with mass spectrometry detection of kinases as described previously; endogenous in cells; host or cells: cell lysate
T5 sequence (P49841 whole entry): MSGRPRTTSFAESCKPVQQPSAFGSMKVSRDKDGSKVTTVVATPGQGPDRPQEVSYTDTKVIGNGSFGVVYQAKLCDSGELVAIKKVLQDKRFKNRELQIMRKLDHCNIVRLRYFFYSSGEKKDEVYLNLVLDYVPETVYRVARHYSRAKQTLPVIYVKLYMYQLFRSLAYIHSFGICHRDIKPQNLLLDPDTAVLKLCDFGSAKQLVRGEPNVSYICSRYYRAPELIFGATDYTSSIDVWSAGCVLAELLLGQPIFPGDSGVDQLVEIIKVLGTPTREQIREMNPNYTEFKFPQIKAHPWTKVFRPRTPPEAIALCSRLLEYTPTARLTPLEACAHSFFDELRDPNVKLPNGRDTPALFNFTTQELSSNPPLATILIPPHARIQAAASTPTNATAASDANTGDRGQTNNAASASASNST
Description: as §1

kinases (kinome) [6] = target: T6, kinases (kinome) (Homo sapiens, UniProt P50613); settings: CDK7 (CMGC), IPI00000685
T6 construct: determined in kinobeads assays with mass spectrometry detection of kinases as described previously; endogenous in cells; host or cells: cell lysate
T6 sequence (P50613 whole entry): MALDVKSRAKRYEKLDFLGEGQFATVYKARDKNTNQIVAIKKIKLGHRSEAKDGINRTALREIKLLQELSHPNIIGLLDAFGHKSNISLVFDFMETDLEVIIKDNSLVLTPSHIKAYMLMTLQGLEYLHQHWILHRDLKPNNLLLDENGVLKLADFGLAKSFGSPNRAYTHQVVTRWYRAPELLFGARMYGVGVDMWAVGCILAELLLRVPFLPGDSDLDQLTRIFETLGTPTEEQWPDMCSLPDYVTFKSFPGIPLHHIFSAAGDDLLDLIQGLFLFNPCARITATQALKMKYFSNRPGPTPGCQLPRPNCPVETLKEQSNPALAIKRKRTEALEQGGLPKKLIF
Description: as §1

kinases (kinome) [7] = target: T7, kinases (kinome) (Homo sapiens, UniProt Q00535); settings: CDK5 (CMGC), IPI00023530
T7 construct: determined in kinobeads assays with mass spectrometry detection of kinases as described previously; endogenous in cells; host or cells: cell lysate
T7 sequence (Q00535 whole entry): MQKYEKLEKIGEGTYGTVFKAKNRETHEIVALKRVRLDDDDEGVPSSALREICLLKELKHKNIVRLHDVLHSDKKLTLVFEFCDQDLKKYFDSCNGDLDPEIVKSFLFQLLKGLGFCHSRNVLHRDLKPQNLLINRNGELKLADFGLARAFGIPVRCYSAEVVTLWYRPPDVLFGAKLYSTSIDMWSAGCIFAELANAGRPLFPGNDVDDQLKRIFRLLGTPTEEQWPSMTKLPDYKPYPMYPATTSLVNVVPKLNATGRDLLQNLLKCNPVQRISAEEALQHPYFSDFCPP
Description: as §1

kinases (kinome) [8] = target: T8, kinases (kinome) (Homo sapiens, UniProt Q07912); settings: ACK (TK), IPI00552750
T8 construct: determined in kinobeads assays with mass spectrometry detection of kinases as described previously; endogenous in cells; host or cells: cell lysate
T8 sequence (Q07912 whole entry): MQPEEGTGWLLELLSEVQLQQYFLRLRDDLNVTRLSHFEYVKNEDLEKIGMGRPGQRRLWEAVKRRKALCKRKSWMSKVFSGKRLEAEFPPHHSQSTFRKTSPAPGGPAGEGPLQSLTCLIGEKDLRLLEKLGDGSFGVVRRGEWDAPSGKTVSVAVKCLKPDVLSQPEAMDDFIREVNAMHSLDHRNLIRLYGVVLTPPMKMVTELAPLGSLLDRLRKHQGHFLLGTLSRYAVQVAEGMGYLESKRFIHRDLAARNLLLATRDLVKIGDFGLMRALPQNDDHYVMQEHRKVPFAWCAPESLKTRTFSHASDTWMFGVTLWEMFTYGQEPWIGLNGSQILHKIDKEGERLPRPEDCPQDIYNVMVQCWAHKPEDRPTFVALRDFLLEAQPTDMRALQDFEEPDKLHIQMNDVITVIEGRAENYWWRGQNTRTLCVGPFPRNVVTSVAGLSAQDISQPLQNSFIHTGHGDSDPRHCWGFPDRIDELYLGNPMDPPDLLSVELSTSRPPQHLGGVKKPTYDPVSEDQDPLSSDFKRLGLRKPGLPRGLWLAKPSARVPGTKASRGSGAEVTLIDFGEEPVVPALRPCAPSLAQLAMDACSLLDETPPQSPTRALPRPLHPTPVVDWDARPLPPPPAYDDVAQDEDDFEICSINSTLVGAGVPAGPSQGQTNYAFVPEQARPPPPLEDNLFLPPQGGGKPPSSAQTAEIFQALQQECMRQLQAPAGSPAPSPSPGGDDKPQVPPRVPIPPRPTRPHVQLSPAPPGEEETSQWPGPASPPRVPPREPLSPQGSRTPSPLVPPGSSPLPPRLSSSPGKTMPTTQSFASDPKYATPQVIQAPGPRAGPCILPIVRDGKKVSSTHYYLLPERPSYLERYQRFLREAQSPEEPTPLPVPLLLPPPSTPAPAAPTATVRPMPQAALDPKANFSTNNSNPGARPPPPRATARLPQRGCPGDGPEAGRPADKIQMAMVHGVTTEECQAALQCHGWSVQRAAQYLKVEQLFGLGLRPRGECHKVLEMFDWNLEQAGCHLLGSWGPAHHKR
Description: as §1

kinases (kinome) [9] = target: T9, kinases (kinome) (Homo sapiens, UniProt Q96S53); settings: TESK2 (TKL), IPI00102677
T9 construct: determined in kinobeads assays with mass spectrometry detection of kinases as described previously; endogenous in cells; host or cells: cell lysate
T9 sequence (Q96S53 whole entry): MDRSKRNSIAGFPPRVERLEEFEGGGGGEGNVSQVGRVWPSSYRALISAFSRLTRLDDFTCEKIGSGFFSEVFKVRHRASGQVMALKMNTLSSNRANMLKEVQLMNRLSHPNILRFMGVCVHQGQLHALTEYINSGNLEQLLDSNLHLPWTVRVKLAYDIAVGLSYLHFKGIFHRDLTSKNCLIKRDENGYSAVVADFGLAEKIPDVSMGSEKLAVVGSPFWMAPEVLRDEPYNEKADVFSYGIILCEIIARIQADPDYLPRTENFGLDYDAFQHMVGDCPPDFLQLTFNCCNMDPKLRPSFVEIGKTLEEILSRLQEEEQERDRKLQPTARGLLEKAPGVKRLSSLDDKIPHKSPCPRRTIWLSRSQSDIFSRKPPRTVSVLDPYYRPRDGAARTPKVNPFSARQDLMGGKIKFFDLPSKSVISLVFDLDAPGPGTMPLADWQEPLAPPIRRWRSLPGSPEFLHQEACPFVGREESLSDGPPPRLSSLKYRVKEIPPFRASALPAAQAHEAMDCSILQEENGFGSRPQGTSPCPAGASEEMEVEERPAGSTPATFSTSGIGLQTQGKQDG
Description: as §1

kinases (kinome) [10] = target: T10, kinases (kinome) (Homo sapiens, UniProt Q9HCP0); settings: CK1g1 (CK1), IPI00791893
T10 construct: determined in kinobeads assays with mass spectrometry detection of kinases as described previously; endogenous in cells; host or cells: cell lysate
T10 sequence (Q9HCP0 whole entry): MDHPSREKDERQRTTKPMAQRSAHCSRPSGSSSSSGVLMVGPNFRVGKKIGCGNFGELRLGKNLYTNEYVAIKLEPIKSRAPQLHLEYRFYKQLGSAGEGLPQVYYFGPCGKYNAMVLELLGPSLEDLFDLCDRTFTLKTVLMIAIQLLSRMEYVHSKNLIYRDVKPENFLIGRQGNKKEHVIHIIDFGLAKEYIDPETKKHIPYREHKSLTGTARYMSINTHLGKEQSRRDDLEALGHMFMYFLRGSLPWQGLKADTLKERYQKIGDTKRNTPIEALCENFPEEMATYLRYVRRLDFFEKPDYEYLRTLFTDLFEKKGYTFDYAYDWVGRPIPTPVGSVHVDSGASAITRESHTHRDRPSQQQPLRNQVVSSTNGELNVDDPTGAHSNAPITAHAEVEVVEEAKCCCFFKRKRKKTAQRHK
Description: as §1

Measured: IC50

C[C@H]1COCCN1c1nc(-c2ccc(NC(=O)NC3CC3)cc2)cc(-c2ccccc2S(C)(=O)=O)n1 [Example 4, (S)-1-cyclopropyl-3-(4-(2-(3-methylmorpholino)-6-(2-(methylsulfonyl)phenyl)pyrimidin-4-yl)phenyl)urea]
> 10 µM: all assays above

C[C@H]1COCCN1c1cc(-c2ccccc2S(C)(=O)=O)nc(-c2ccc(NC(=O)NC3CC3)cc2)n1 [Example 6, (S)-1-cyclopropyl-3-(4-(4-(3-methylmorpholino)-6-(2-(methylsulfonyl)phenyl)pyrimidin-2-yl)phenyl)urea]
> 10 µM: all assays above

CCNC(=O)Nc1ccc(-c2cc(-c3ccccc3C#N)nc(N3CCOC[C@@H]3C)n2)cc1 [Example 8, (S)-1-(4-(6-(2-cyanophenyl)-2-(3-methylmorpholino)pyrimidin-4-yl)phenyl)-3-ethylurea]
> 10 µM: all assays above

C[C@H]1COCCN1c1nc(-c2ccc(NC(=O)NC3CC3)cc2)cc(-c2cc(F)ccc2S(C)(=O)=O)n1 [Example 40, (S)-1-cyclopropyl-3-(4-(6-(5-fluoro-2-(methylsulfonyl)phenyl)-2-(3-methylmorpholino)pyrimidin-4-yl)phenyl)urea]
> 10 µM: all assays above

C[C@H]1COCCN1c1cc(-c2ccccn2)nc(-c2ccc(NC(=O)NCCO)cc2)n1 [Example 43, (S)-1-(2-hydroxyethyl)-3-(4-(4-(3-methylmorpholino)-6-(pyridin-2-yl)pyrimidin-2-yl)phenyl)urea]
> 10 µM: all assays above

C[C@H]1COCCN1c1nc(-c2ccc(NC(=O)NC3CC3)cc2)cc(-c2cccnc2S(C)(=O)=O)n1 [Example 46, (S)-1-cyclopropyl-3-(4-(2-(3-methylmorpholino)-6-(2-(methylsulfonyl)pyridin-3-yl)pyrimidin-4-yl)phenyl)urea]
> 10 µM: all assays above

C[C@H]1COCCN1c1nc(-c2ccc(NC(=O)N[C@H]3CCC[C@@H]3O)cc2)cc(-c2cc(F)ccc2S(C)(=O)=O)n1 [Example 76, 1-(4-(6-(5-fluoro-2-(methylsulfonyl)phenyl)-2-((S)-3-methylmorpholino)pyrimidin-4-yl)phenyl)-3-((1S,2S)-2-hydroxycyclopentyl)urea]
> 10 µM: all assays above
